Measured values as given in article PMC11001712, “Epiberberine: a potential rumen microbial urease inhibitor to reduce ammonia release screened by targeting UreG” (Applied Microbiology and Biotechnology, 2024).
Like-named read-outs stand apart in the source and are kept apart here.

Legend:
[1] = system: UreG; assay: UreG GTPase activity (Malachite Green Phosphate Assay); type: biochemical, rumen microorganisms of dairy cows; settings: for IC50: alkaloid 0, 6.25, 12.5, 25, 50 and 100 μM, triplicate, read-out: IC50 against UreG GTPase activity
[2] = system: urease of ruminal microbial crude protein; assay: Urease activity of ruminal microbial crude protein (phenol/hypochlorite); type: biochemical, rumen microorganisms; settings: Fig. 5A
Experimental: Ruminal microbial crude protein was collected by ultrasonication and centrifugation following a previously established method (Zhang et al. [2020b]). The urease activity of ruminal microbial crude protein was determined based on the amount of ammonia decomposed by urea through a modified phenol/hypochlorite reaction method (Krallmann-Wenzel [1985]), in which the urease activity without alkaloid and urea was set at 0, and the urease activity without alkaloid was set at 100%. The inhibition rate of alkaloid to inhibit urease activity was calculated by the following formula: Inhibitionrate%=1-A-B/C-D×100 where A represents the absorbance value of urease activity with alkaloid, B represents the absorbance value of urease activity with alkaloid but without urea, C represents the absorbance value of urease activity without alkaloid, and D represents the absorbance value of urease activity without alkaloid and urea. Each measurement was performed in triplicate.

[3] = molecular target: (UniProt A0A6M3RDS9); assay: UreG GTPase activity (Malachite Green Phosphate Assay); type: biochemical, rumen microorganisms of dairy cows; settings: alkaloid 0, 6.25, 12.5, 25, 50 and 100 μM; triplicate; read-out: IC50 against UreG GTPase activity
[4] = molecular target: UreG; assay: Isothermal titration calorimetry of nickel binding to UreG in presence of alkaloid; parameters: species or system rumen microorganisms of dairy cows; settings: for Effect on KD value between nickel and UreG / Effect on N value (nickel: UreG): 27 μM UreG, 1500 μM NiSO4, 238 μM alkaloid
Experimental: The inhibition mechanism of UreG by alkaloid was explored using ITC and CD spectroscopy, to reveal the effects of alkaloid on the combination of nickel towards UreG and the secondary structure of UreG. ITC measurements were carried out with an AutoITC200 microcalorimeter (GE, MA, USA) as described previously (Zhang et al. [2020a]). Briefly, 27 µM UreG was titrated with 1500 µM NiSO4 in the present of 238 µM alkaloid. The titration curve was fitted with the one-site binding model, and the final data was analyzed by ITC Analysis Module in the software of Origin 7.0 (OriginLab, MA, USA).

[5] = system: UreG; assay: Circular dichroism spectroscopy of UreG secondary structure; parameters: species or system rumen microorganisms of dairy cows; settings: 233 μg/mL UreG, 88 μM alkaloid
Experimental: The CD spectra of UreG were recorded using Chirascan Plus spectrometer (Applied Photophysics Ltd., Surrey, UK) equipped with a 1-mm quartz cell, at measurement range between 190 and 260 nm, with 1 nm data pitch and bandwidth. To reduce interference from the background solution, 233 µg/mL UreG and 88 µM alkaloid were prepared using distilled water. The final CD spectrum of UreG was obtained by subtracting the background spectrum (distilled water or alkaloid) from the sample spectrum. The secondary structure proportions (α-helix, β-sheet, β-turn, and random coil) in UreG were calculated using CDNN (v.2.1) software (Applied Photophysics Ltd., Leatherhead, UK).

[6] = system: UreG; settings: from trend of Km and Vmax with alkaloid concentration
Experimental: The kinetics assay of UreG by alkaloid was carried out by Michaelis–Menten equation, and the values of Michaelis–Menten constants (Km and Vmax) were calculated from the Lineweaver–Burk plots through the software of GraphPad Prism. The inhibition with various concentrations of alkaloids (0, 15.6, 62.5, and 250 µM) was measured at different concentrations of GTP substrate (0, 12.5, 25, 50, 100, and 200 µM).

[7] = system: urease; parameters: method as in Tan et al. [2017]; settings: ref Tan et al. [2017]; cited from earlier work
[8] = system: urease of Helicobacter pylori; parameters: method as in Li et al. [2016]; settings: ref Li et al. [2016]; cited from earlier work
[9] = cited from earlier work
[10] = system: Helicobacter pylori; parameters: method as in Li et al. [2018]; settings: antibacterial study and urease activity in vivo; ref Li et al. [2018]; cited from earlier work
[11] = system: rumen microbial urease (rumen fluid); assay: Ruminal microbial fermentation in vitro (NH3 and urea); type: cell-based, rumen microorganisms; settings: 15 mM urea; for Decrease in NH3 concentration: 12 h of incubation
Experimental: The study of ruminal microbial fermentation consisted of a control group and 3 epiberberine treatment groups, each containing 70 mL fresh rumen fluid and 140 mL anaerobic medium (Zhang et al. [2020c]). Epiberberine treatment groups with the final concentration of 2, 20, and 200 μM were pre-incubated in an anaerobic chamber at 39 °C for 15 min. Immediately after inoculation, 10 mL aliquots of mixed solution were transferred into Hungate tubes, urea with a final concentration of 15 mM was added into each tube. Three tubes were immediately collected from each group as 0 h samples; the others were sealed with rubber stoppers and cultured in an incubator. Samples were collected at 1, 2, 4, 8, and 12 h of incubation, with 3 tubes in each group. The collected tubes were immediately placed on ice to slow down fermentation; 400 μL of sample solution was mixed with 800 μL metaphosphoric acid solution (25% w/v) and centrifuged at 12,000 × g for 5 min. The supernatant was collected for the detection of NH3 and urea. NH3 content was measured by a modified phenol/hypochlorite reaction method. Urea concentration was determined using the diacetyl monoxime method kit following the manufacturer’s instructions (Jiancheng Bioengineering, Nanjing, China).

[12] = acute toxicity; ref Yi et al. [2013]; cited from earlier work
[13] = rat, in vivo, po; cited from earlier work

Chain of (UniProt A0A6M3RDS9) (A0A6M3RDS9 1-203): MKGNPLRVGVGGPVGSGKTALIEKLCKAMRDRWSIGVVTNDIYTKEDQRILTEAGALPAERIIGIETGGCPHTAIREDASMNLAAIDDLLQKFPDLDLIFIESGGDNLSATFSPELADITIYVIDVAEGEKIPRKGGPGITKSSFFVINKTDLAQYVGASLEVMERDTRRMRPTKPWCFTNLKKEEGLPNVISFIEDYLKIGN

## CC(=O)NO [AHA, acetohydroxamic acid, reference compound]
[1]; Fig. 1A screening
  Inhibition rate of UreG GTPase activity: little effect
[2]
  Inhibition rate of urease activity against ruminal microbial crude protein: 40%

## c1c2c(cc3c1OCO3)-c1cc3ccc4c(c3c[n+]1CC2)OCO4 [Coptisine chloride]
[1]
  IC50: 86.6 µM
[1]; ratio of inhibition rates
  Inhibition rate of UreG GTPase activity relative to coptisine: 2.5 times

## COc1cc2c(cc1O)CC[n+]1cc3c(OC)c(OC)ccc3cc1-2 [Jatrorrizine chloride]
[1]
  IC50: 60.1 µM

## COc1cc2c(cc1OC)-c1cc3ccc(OC)c(OC)c3c[n+]1CC2 [Palmatine chloride]
[3]
  IC50: 94.8 µM

## COc1ccc2cc3[n+](cc2c1OC)CCc1cc2c(cc1-3)OCO2 [berberine chloride]
[3]
  IC50: 43.2 µM
[4]
  Effect on KD value between nickel and UreG: slightly altered
  Effect on N value (nickel: UreG): slightly altered
[5]
  Secondary structural content changes of UreG: slight changes
[6]
  Type of inhibition of UreG: mixed-type inhibitor

## COc1ccc2cc3[n+](cc2c1OC)CCc1cc2c(cc1-3)OCO2 [berberine]
[7]
  Inhibitory potential against urease based on IC50 (rank among 5 alkaloids): weakest one among the 5 alkaloids
[8]
  Inhibitory activity against urease of Helicobacter pylori: little inhibitory activity
[9]; rats, ref Chen et al. [2017]
  Oral bioavailability: < 1%

## c1c2c(cc3c1OCO3)-c1cc3ccc4c(c3c[n+]1CC2)OCO4 [coptisine]
[10]
  Inhibitory effect on Helicobacter pylori among the 5 major protoberberine alkaloids: strongest inhibitory effect

## COc1cc2c(cc1OC)-c1cc3ccc4c(c3c[n+]1CC2)OCO4 [epiberberine]
[3]
  IC50: 56.9 µM
[4]
  Effect on KD value between nickel and UreG: increased
  Effect on N value (nickel: UreG): decreased
[4]; 238 μM alkaloid
  Weaker binding of nickel and UreG compared to that of berberine chloride: 10.8 fold
[5]
  Decrease in the α-helix content of UreG: ~ 56%
  Increasement in the β-sheet content of UreG: ~ 105%
[2]
  Inhibition rate of urease activity against ruminal microbial crude protein: significantly higher than that of berberine chloride and AHA
[11]; 2 μM, after 8 h of incubation
  Urea remaining during fermentation: completely decomposed
[11]; 20 μM
  Decrease in NH3 concentration: 13.1%
[11]; 200 μM
  Decrease in NH3 concentration: 15.6%
[6]
  Type of inhibition of UreG: uncompetitive inhibition type
[7]
  Inhibitory potential against urease based on IC50 (rank among 5 alkaloids): lowest IC50 value
[12]
  Median lethal dose: 1360.0 mg/kg
[9]; rat, in vivo, po
  Oral bioavailability: 14.5%
[13]
  Detection in urine, feces and bile: not detected

## COc1cc2c(cc1OC)-c1cc3ccc(OC)c(OC)c3c[n+]1CC2 [palmatine]
[12]
  Median lethal dose: 1533.7 mg/kg
